One series has as its target MPP1 (Homo sapiens, UniProt Q96Q89). In words: Kinesin panel, basal and MT-stimulated ATPase, MPP1. In kind it is biochemical. Conditions: data not shown.
A further series deals with T1, Kif7 (Homo sapiens, UniProt Q2M1P5).
T1 sequence (Q2M1P5 1-1343): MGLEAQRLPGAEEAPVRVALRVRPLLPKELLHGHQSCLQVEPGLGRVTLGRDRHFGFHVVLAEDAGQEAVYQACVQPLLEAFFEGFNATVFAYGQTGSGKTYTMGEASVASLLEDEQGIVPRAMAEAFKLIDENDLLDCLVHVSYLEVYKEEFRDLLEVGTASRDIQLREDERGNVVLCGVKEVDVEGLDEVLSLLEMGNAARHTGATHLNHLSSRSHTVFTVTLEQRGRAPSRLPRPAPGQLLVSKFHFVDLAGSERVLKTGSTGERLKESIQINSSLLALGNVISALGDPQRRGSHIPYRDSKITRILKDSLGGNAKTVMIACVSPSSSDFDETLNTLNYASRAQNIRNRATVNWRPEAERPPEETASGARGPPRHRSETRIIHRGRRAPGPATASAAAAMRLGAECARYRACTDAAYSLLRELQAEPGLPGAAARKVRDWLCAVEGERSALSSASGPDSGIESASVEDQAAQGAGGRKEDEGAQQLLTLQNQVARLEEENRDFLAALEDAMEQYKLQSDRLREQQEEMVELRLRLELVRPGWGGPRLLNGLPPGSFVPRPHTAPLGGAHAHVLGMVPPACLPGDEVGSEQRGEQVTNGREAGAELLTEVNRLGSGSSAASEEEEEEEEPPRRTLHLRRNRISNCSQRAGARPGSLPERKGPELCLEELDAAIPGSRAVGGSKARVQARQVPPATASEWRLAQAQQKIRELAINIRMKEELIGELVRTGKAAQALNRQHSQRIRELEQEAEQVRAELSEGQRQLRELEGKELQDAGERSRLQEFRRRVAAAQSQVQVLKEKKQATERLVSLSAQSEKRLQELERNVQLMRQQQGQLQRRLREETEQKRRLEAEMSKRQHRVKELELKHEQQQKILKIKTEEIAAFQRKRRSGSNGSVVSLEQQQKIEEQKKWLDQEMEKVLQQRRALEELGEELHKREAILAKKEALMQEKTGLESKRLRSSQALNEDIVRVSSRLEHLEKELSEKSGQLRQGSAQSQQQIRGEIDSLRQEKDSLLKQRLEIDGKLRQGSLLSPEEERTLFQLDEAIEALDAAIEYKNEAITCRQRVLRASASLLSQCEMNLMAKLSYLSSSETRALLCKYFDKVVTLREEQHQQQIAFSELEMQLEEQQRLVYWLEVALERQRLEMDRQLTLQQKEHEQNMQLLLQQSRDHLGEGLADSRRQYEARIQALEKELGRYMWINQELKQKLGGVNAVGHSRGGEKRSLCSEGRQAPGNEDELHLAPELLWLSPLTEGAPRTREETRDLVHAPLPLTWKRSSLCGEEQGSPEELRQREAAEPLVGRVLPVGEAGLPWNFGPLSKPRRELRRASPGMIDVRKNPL
Briefly: Kinesin panel, basal and MT-stimulated ATPase, Kif7. Format: biochemical. The settings on record: data not shown.

The target in another series is T2, Kif5a (Homo sapiens, UniProt Q12840).
T2 sequence (Q12840 1-1032): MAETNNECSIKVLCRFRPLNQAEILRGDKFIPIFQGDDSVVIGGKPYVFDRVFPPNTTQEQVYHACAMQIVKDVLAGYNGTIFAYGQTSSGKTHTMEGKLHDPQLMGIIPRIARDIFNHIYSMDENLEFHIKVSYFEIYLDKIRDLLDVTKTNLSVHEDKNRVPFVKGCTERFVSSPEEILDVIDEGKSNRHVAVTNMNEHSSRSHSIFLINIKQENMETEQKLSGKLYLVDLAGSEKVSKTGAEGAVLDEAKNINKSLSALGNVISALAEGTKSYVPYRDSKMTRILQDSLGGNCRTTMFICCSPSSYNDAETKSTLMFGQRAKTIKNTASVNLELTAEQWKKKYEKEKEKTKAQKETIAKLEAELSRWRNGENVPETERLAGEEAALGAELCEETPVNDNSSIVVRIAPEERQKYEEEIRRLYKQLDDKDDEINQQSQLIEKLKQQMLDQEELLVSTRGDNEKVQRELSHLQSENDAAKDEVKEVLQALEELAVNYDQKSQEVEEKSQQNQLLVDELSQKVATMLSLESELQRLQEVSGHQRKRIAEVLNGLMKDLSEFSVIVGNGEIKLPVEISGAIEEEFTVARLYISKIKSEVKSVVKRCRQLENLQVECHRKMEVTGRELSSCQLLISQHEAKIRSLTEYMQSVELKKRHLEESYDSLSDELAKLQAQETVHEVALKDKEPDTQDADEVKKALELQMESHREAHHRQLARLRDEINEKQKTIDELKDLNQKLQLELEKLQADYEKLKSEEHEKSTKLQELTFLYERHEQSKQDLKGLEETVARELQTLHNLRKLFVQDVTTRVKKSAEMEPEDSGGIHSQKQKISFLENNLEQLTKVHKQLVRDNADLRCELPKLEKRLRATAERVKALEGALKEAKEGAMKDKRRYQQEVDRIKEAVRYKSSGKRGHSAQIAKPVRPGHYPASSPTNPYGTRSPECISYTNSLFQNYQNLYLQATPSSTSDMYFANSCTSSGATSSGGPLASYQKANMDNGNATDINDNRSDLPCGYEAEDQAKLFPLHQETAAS
In words: Kinesin panel, basal and MT-stimulated ATPase, Kif5a. Format: biochemical. Conditions: data not shown.

A further series deals with T3, MKLP-2 (Homo sapiens, UniProt O95235).
T3 sequence (O95235 1-890): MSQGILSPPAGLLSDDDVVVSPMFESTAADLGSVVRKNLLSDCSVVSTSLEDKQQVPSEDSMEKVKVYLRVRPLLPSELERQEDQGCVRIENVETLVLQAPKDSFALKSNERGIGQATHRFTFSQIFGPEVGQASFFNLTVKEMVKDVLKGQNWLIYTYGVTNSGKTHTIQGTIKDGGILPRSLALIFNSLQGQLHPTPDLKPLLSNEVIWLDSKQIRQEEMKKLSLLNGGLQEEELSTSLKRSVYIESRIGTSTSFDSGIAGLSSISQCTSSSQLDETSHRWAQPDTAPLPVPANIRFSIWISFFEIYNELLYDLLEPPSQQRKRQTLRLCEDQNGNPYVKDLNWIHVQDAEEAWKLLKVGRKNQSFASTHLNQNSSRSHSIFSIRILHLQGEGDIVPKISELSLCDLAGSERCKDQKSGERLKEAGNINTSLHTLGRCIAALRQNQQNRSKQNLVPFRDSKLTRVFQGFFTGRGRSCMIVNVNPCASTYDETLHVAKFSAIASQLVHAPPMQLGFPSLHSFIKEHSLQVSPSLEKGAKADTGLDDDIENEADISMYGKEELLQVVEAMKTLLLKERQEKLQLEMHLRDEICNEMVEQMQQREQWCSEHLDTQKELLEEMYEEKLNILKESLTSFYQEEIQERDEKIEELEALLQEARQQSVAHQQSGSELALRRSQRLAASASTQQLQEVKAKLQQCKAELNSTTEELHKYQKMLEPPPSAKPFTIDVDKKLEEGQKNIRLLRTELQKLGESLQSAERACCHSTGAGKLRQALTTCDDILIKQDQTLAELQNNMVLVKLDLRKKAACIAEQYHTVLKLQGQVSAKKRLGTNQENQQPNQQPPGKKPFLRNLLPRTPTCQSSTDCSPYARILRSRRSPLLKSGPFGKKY
Briefly: Kinesin panel, basal and MT-stimulated ATPase, MKLP-2. In kind it is biochemical. Conditions: data not shown.

The next series concerns K562 cells. Briefly: cells. Format: cell-based. The settings on record: Homo sapiens, K562, 72 h, read-out: K562 cells, GI50.
Another series deals with CENP-E (Homo sapiens, UniProt Q02224). In words: Kinesin panel, basal and MT-stimulated ATPase, CENP-E. In kind it is biochemical. The settings on record: data not shown.
CENP-E, sequence (Q02224 whole entry): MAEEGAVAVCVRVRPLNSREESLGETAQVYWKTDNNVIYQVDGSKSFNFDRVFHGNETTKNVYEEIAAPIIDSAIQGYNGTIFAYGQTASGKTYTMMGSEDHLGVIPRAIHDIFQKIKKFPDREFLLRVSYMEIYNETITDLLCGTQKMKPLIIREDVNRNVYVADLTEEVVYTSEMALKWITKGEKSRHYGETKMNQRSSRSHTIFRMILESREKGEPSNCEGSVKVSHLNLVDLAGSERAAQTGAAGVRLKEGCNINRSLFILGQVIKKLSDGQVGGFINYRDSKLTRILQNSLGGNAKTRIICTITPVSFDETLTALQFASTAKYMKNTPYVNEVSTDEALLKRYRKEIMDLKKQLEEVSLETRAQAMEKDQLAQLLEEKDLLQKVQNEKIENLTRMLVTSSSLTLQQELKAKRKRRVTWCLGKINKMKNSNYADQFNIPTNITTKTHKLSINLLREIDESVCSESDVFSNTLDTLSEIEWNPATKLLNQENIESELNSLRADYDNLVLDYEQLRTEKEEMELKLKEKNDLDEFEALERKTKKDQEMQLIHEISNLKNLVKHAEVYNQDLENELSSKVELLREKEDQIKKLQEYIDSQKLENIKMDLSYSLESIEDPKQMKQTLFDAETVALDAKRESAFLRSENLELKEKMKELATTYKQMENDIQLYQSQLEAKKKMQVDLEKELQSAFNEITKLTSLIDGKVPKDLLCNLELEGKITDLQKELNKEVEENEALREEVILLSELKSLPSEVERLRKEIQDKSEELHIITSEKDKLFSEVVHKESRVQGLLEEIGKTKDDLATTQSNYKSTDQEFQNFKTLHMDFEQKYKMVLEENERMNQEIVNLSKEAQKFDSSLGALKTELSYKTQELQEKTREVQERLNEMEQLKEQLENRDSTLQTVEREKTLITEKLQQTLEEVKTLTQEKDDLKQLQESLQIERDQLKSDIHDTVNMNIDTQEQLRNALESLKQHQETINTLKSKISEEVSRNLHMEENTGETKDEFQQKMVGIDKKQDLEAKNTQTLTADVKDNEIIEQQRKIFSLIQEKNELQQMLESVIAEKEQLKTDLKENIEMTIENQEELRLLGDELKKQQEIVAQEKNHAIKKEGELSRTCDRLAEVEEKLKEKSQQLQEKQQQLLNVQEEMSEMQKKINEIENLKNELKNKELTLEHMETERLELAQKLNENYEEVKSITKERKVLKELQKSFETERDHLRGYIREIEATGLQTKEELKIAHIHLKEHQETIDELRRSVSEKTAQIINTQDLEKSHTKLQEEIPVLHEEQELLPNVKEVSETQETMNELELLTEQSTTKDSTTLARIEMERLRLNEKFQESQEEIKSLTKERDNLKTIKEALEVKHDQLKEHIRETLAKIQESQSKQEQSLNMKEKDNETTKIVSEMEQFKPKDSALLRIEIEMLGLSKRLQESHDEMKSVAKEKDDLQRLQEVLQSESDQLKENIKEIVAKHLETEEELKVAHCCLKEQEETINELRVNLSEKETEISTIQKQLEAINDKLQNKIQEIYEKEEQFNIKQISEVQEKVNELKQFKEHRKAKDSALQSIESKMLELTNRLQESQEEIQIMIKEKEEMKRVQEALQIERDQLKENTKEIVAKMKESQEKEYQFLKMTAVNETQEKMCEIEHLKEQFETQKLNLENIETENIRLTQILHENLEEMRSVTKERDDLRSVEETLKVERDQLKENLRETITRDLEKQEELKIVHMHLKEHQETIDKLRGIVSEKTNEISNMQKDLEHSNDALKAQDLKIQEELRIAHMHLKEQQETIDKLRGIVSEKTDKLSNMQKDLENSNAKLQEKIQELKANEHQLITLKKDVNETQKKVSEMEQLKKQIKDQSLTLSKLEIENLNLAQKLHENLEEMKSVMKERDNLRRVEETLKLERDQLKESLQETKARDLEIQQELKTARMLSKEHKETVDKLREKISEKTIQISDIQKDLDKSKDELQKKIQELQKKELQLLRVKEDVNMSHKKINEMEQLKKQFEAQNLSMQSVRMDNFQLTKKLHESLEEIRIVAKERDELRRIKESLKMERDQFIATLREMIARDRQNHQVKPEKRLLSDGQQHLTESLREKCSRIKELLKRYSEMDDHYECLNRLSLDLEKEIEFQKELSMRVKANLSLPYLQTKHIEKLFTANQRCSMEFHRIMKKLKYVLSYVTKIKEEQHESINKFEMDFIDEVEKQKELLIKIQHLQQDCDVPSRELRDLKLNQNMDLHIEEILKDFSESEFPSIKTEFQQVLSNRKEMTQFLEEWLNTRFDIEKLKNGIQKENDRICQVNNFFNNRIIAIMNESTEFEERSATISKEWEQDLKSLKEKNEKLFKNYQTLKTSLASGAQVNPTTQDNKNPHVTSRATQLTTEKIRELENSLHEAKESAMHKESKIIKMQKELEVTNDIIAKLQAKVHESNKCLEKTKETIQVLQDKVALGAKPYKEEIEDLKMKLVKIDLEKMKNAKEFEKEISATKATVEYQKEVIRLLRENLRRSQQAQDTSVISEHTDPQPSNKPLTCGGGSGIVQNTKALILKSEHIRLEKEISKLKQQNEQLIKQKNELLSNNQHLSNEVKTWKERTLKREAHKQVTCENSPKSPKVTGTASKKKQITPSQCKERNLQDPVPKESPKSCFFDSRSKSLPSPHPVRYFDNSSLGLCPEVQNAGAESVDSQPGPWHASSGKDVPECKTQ
The nature of series [1]: Human microsomal stability. The settings on record: human microsomes, 3 µM.
Series [2] can be described thus: Mouse microsomal stability. The settings on record: mouse microsomes, 3 µM.
The nature of series [3]: Human plasma protein binding, equilibrium dialysis. Conditions: 50%. A general note: In equilibrium dialysis only unbound substance equilibrates across the membrane.

Where only a bound is given, the exact number is not on record here.

MPP1, sequence (Q96Q89 whole entry): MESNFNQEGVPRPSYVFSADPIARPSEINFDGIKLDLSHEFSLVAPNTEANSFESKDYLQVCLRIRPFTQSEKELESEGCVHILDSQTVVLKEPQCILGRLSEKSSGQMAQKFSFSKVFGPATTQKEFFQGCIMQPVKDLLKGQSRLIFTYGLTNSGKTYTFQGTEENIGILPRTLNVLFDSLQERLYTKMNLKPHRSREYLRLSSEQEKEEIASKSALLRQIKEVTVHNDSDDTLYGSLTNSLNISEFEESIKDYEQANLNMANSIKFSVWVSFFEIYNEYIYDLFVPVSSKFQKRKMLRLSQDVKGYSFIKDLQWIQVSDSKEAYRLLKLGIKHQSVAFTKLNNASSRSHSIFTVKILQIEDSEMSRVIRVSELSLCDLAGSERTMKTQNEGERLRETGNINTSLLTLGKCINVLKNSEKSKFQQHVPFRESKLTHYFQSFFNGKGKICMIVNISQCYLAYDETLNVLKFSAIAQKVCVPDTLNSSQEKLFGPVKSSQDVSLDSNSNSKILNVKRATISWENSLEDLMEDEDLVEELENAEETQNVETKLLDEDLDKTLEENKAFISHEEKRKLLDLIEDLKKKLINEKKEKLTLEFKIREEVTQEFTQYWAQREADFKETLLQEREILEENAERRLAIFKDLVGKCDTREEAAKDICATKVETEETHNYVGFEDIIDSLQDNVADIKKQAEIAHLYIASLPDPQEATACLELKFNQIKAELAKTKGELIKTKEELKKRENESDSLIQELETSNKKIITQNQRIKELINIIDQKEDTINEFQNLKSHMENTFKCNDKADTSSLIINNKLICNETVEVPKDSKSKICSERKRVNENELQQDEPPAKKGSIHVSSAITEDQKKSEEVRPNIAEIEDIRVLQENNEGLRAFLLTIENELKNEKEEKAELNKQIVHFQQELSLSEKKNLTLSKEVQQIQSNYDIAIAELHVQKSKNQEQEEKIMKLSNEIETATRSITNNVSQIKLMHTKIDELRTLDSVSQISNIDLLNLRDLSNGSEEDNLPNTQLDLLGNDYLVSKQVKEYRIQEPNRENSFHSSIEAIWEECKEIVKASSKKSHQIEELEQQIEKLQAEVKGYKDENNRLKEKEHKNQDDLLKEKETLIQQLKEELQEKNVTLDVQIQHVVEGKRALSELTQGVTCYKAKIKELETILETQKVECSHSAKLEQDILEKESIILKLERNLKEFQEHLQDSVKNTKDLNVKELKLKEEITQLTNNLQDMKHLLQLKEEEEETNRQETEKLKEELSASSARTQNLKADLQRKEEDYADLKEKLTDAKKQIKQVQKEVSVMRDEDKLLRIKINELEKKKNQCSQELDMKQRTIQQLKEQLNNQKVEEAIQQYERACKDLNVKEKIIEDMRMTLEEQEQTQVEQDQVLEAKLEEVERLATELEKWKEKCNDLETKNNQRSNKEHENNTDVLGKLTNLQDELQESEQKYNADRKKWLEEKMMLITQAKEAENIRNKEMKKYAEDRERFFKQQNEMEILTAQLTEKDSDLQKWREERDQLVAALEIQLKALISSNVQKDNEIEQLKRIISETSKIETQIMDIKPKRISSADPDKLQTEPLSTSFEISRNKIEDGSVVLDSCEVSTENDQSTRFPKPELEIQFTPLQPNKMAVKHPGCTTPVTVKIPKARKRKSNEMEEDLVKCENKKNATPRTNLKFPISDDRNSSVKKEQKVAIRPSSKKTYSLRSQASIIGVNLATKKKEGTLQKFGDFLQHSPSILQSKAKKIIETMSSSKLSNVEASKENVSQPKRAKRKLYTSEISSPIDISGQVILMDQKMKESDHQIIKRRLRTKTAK

Regarding `Cc1cccc(C(CCC(N)C(=O)O)(c2ccccc2)c2ccccc2)c1` (racemic) [rac-29, 2-Amino-5-(3-methylphenyl)-5,5-diphenylpentanoic acid], on MPP1, the “inhibition of basal and MT-stimulated ATPase activities, MPP1” value is “did not observe any significant inhibition”. For the same compound, the “inhibition of basal and MT-stimulated ATPase activities, Kif7” value against Kif7 is “did not observe any significant inhibition”. The “inhibition of basal and MT-stimulated ATPase activities, Kif5a” value on Kif5a is given as “did not observe any significant inhibition”. Besides, on MKLP-2, the “inhibition of basal and MT-stimulated ATPase activities, MKLP-2” value is “did not observe any significant inhibition”. For the same compound, in the series on K562 cells, the GI50 (usually the concentration that inhibits growth by half) is 91 ± 9 nM. Further, on CENP-E, the “inhibition of basal and MT-stimulated ATPase activities, CENP-E” value is recorded as “did not observe any significant inhibition”.

With `Cc1cccc(C(CCCN)(c2ccccc2)c2ccccc2)c1` [compound 30, 4-(3-Methylphenyl)-4,4-diphenylbutan-1-amine], the “turbidimetric solubility pH 7.4” value is >100, >100, >100 μM. In [1], the “microsomal stability, Clint, human” value is recorded as “stable”. Besides, the “microsomal stability, Clint, mice” value in series [2] was “high microsomal clearance”. This compound displayed a recovery at 5 µM in series [3] of 69.1%.

(Values after paper PMC3428805 (Journal of Medicinal Chemistry, 2012).)
